Assay results published in paper PMC4854315, “Discovery of a novel allosteric inhibitor-binding site in ERK5: comparison with the canonical kinase hinge ATP-binding site” (Acta Crystallographica. Section D, Structural Biology, 2016).

Assays:
Test in all cases: Z'-LYTE kinase panel
Assay type in all cases: biochemical
TAOK2 (TAO1) = molecular target: T1, TAOK2 (TAO1) (Homo sapiens, UniProt Q9UL54)
T1 construct: purchased ThermoFisher (SelectScreen, Z'-LYTE)
T1 sequence (Q9UL54 1-1235): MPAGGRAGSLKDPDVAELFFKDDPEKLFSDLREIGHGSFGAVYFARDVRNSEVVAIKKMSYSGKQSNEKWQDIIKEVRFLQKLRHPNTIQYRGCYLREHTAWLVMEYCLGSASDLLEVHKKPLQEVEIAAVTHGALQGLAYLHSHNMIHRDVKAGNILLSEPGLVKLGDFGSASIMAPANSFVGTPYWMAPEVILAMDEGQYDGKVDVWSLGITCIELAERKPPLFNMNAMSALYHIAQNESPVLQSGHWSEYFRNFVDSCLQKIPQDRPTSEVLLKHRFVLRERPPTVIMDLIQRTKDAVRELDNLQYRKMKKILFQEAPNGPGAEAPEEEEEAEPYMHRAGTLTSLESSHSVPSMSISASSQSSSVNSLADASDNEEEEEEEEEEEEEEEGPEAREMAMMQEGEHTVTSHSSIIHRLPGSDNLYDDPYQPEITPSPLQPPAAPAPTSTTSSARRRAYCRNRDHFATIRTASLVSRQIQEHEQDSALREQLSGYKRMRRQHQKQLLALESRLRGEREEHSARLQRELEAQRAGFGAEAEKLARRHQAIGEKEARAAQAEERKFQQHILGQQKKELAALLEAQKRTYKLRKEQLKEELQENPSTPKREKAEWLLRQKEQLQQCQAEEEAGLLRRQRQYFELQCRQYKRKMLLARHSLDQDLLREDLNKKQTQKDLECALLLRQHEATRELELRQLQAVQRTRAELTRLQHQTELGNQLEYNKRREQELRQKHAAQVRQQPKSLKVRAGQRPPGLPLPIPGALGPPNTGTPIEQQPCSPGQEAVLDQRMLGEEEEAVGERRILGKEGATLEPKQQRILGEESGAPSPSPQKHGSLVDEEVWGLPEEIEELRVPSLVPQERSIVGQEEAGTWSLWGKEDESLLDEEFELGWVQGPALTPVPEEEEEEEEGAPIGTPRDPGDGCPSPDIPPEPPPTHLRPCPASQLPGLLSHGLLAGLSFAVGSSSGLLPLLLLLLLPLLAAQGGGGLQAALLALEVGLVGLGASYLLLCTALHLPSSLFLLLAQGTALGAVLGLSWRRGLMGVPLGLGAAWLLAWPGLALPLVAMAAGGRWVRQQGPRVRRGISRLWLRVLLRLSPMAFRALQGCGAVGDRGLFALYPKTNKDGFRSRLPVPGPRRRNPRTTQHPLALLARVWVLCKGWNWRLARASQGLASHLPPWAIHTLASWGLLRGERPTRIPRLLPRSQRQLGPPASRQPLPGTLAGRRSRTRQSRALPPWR
Summary of the method: (§1)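 Single-point screen, 10 µM compound; % inhibition read by Z′-LYTE (FRET-based) format per standard protocol; 225-kinase panel.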

IGF1R = molecular target: T2, IGF1R (Homo sapiens, UniProt P08069)
T2 construct: purchased ThermoFisher (SelectScreen, Z'-LYTE)
Summary of the method: as §1

FER = molecular target: T3, FER (Homo sapiens, UniProt P16591)
T3 construct: purchased ThermoFisher (SelectScreen, Z'-LYTE)
Summary of the method: as §1

GRK5 = molecular target: T4, GRK5 (Homo sapiens, UniProt P34947)
T4 construct: purchased ThermoFisher (SelectScreen, Z'-LYTE)
Summary of the method: as §1

EEF2K = molecular target: T5, EEF2K (Homo sapiens, UniProt O00418)
T5 construct: purchased ThermoFisher (SelectScreen, Z'-LYTE)
Summary of the method: as §1

ERBB4 (HER4) = molecular target: T6, ERBB4 (HER4) (Homo sapiens, UniProt Q15303)
T6 construct: purchased ThermoFisher (SelectScreen, Z'-LYTE)
Summary of the method: as §1

IKBKE (IKK epsilon) = molecular target: T7, IKBKE (IKK epsilon) (Homo sapiens, UniProt Q14164)
T7 construct: purchased ThermoFisher (SelectScreen, Z'-LYTE)
T7 sequence (Q14164 1-716): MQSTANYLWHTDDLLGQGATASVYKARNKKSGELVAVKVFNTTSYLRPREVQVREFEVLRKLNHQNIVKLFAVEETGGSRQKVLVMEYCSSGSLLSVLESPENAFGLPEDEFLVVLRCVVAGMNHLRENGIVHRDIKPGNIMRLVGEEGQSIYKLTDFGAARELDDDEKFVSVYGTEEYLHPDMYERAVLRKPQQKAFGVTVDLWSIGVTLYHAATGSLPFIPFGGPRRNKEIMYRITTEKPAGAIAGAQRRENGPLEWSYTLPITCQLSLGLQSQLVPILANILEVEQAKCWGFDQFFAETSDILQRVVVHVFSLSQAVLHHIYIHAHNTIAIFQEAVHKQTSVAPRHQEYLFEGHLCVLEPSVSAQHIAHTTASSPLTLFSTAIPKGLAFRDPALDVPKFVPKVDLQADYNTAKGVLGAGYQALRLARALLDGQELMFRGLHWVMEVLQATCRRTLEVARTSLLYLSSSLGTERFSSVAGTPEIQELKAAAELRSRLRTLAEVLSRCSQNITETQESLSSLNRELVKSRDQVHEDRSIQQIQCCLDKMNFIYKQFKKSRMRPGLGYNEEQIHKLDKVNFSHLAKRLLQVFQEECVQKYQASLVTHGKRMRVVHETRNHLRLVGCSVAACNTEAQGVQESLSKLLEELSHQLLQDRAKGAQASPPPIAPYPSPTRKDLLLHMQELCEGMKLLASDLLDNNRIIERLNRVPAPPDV
Summary of the method: as §1

PLK1 = molecular target: T8, PLK1 (Homo sapiens, UniProt P53350)
T8 construct: purchased ThermoFisher (SelectScreen, Z'-LYTE)
Summary of the method: as §1

CDC42 BPB (MRCKB) = molecular target: T9, CDC42 BPB (MRCKB) (Homo sapiens, UniProt Q9Y5S2)
T9 construct: purchased ThermoFisher (SelectScreen, Z'-LYTE)
Summary of the method: as §1

LYN A = molecular target: T10, LYN A (Homo sapiens, UniProt P07948)
T10 construct: purchased ThermoFisher (SelectScreen, Z'-LYTE)
Summary of the method: as §1

ROS1 = molecular target: T11, ROS1 (Homo sapiens, UniProt P08922)
T11 construct: purchased ThermoFisher (SelectScreen, Z'-LYTE)
Summary of the method: as §1

JAK2 = molecular target: T12, JAK2 (Homo sapiens, UniProt O60674)
T12 construct: purchased ThermoFisher (SelectScreen, Z'-LYTE)
Summary of the method: as §1

CDK1/cyclin B = molecular target: T13, CDK1/cyclin B (Homo sapiens, UniProt P06493)
T13 construct: purchased ThermoFisher (SelectScreen, Z'-LYTE)
Summary of the method: as §1

LYN B = molecular target: T14, LYN B (Homo sapiens, UniProt P07948)
T14 construct: purchased ThermoFisher (SelectScreen, Z'-LYTE)
Summary of the method: as §1

RPS6KA4 (MSK2) = molecular target: T15, RPS6KA4 (MSK2) (Homo sapiens, UniProt O75676)
T15 construct: purchased ThermoFisher (SelectScreen, Z'-LYTE)
Summary of the method: as §1

LCK = molecular target: T16, LCK (Homo sapiens, UniProt P06239)
T16 construct: purchased ThermoFisher (SelectScreen, Z'-LYTE)
Summary of the method: as §1

CLK3 = molecular target: T17, CLK3 (Homo sapiens, UniProt P49761)
T17 construct: purchased ThermoFisher (SelectScreen, Z'-LYTE)
Summary of the method: as §1

T15 sequence (O75676 whole entry): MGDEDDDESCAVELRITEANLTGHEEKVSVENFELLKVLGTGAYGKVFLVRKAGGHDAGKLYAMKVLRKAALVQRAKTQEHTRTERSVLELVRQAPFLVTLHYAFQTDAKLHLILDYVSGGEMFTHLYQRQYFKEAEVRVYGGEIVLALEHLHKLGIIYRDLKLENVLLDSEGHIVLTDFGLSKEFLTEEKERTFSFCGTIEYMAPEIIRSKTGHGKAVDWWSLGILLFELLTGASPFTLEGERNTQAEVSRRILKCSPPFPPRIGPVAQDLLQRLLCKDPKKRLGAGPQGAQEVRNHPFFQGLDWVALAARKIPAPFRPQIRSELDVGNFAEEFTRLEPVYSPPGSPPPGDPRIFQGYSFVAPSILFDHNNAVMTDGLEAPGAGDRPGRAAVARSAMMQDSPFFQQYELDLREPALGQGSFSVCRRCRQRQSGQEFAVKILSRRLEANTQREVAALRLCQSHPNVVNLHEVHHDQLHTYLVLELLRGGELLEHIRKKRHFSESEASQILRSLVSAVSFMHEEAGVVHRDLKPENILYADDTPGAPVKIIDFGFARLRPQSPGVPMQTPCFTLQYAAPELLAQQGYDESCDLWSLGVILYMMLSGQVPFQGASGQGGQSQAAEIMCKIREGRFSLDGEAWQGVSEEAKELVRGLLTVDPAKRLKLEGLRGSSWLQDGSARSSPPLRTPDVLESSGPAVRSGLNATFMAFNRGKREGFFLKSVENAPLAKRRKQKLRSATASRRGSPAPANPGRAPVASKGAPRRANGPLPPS
T6 sequence (Q15303 26-1308): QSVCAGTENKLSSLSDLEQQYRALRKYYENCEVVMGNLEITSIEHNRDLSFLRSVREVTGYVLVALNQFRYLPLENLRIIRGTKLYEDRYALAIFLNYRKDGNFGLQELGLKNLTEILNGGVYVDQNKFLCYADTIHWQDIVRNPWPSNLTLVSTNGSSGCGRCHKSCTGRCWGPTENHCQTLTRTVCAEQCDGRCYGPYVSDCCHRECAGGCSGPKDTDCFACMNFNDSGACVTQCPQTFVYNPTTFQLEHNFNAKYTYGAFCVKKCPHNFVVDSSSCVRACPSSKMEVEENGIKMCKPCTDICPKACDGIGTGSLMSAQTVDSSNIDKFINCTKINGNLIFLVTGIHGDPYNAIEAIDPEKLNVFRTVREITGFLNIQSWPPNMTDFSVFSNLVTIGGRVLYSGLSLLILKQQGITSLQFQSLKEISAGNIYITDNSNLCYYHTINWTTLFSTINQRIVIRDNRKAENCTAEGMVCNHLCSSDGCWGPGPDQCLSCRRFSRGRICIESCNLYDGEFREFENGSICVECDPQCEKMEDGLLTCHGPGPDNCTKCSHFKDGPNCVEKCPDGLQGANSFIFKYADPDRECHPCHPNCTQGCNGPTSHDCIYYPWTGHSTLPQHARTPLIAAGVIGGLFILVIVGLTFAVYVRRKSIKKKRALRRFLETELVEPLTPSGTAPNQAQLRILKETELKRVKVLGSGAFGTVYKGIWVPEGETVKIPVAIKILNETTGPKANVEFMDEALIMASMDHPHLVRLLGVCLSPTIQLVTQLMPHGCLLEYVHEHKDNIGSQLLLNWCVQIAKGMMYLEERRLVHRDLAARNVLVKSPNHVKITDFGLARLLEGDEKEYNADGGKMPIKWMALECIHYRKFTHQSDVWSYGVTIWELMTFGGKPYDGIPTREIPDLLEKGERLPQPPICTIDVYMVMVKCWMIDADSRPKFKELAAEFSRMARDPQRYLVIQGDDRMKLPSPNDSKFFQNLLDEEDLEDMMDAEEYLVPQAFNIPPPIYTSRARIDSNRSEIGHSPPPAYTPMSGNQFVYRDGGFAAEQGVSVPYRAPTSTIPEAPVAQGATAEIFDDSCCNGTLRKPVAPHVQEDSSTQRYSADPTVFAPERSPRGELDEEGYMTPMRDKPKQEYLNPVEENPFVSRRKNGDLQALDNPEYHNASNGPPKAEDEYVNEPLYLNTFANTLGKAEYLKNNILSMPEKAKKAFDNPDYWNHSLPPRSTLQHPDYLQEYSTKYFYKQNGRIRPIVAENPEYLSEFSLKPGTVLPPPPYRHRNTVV
T14 sequence (P07948 1-491 isoform P07948-2): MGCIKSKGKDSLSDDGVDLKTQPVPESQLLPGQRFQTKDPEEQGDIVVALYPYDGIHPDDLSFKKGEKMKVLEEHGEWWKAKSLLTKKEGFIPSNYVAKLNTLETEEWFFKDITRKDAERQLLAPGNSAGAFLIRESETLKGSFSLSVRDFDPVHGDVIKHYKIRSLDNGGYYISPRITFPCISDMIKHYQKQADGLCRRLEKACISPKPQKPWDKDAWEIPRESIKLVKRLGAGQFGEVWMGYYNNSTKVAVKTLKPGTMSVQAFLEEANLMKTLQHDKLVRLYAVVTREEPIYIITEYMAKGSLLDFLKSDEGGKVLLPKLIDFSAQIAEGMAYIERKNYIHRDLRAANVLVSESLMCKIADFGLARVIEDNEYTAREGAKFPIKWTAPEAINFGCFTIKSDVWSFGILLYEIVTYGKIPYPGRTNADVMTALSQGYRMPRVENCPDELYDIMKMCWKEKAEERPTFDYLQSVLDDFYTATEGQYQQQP
T2 sequence (P08069 31-1367): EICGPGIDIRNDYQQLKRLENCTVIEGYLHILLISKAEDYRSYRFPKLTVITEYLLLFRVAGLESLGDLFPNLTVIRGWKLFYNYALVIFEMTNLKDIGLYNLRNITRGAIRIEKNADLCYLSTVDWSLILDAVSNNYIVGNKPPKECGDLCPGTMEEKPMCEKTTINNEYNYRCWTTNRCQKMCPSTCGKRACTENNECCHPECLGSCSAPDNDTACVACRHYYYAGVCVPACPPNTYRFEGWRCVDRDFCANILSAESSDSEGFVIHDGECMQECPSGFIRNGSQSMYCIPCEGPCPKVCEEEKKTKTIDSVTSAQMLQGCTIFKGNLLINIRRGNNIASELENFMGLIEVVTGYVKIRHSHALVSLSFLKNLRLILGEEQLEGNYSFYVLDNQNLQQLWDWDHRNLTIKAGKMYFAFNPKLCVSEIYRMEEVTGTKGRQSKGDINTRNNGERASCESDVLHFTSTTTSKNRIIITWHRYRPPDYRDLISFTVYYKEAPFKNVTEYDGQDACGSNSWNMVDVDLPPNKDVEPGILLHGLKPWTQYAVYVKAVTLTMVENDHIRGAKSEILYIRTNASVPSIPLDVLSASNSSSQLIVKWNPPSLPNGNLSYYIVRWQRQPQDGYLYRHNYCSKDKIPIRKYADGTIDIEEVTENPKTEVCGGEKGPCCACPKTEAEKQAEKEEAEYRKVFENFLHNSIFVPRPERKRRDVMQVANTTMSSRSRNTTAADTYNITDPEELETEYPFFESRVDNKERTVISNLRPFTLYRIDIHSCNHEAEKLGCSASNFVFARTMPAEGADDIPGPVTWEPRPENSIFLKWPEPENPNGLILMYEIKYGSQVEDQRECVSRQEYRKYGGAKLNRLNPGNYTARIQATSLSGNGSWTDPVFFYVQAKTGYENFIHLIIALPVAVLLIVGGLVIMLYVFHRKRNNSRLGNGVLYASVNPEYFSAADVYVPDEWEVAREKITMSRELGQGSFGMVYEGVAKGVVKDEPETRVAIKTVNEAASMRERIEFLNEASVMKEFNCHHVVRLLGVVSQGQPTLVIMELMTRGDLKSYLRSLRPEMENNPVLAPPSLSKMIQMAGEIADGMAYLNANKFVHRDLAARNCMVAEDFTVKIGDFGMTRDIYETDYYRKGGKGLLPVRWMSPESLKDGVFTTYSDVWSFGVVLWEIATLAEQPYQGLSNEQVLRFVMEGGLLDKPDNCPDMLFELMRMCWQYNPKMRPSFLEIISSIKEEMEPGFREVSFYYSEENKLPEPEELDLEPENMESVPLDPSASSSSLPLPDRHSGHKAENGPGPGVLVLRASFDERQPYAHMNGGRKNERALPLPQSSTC
T3 sequence (P16591 whole entry): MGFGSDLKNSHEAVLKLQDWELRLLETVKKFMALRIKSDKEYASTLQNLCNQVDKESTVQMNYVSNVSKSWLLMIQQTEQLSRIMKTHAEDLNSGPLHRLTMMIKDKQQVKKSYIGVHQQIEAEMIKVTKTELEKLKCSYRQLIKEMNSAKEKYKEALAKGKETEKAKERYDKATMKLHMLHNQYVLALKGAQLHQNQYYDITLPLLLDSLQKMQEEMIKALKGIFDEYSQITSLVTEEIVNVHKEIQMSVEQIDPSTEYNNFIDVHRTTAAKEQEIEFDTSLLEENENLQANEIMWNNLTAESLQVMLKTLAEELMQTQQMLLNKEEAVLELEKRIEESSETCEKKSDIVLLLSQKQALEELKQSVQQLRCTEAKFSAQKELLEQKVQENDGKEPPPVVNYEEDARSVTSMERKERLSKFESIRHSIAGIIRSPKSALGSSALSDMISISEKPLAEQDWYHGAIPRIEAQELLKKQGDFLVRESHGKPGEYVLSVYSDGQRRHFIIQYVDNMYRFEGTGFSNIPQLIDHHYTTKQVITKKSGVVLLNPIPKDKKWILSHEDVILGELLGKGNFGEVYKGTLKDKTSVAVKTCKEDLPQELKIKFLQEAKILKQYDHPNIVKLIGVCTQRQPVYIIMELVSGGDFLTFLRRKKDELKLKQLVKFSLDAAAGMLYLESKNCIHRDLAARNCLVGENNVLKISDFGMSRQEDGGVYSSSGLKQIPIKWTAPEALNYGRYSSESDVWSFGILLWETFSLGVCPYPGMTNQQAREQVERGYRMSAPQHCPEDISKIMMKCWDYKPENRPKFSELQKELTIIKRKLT

Molecule	inhibition at 10 µM (TAOK2 (TAO1)) [%]	inhibition at 10 µM (IGF1R) [%]	inhibition at 10 µM (FER) [%]	inhibition at 10 µM (GRK5) [%]	inhibition at 10 µM (EEF2K) [%]	inhibition at 10 µM (ERBB4 (HER4)) [%]	inhibition at 10 µM (IKBKE (IKK epsilon)) [%]	inhibition at 10 µM (PLK1) [%]	inhibition at 10 µM (CDC42 BPB (MRCKB)) [%]	inhibition at 10 µM (LYN A) [%]	inhibition at 10 µM (ROS1) [%]	inhibition at 10 µM (JAK2) [%]	inhibition at 10 µM (CDK1/cyclin B) [%]	inhibition at 10 µM (LYN B) [%]	inhibition at 10 µM (RPS6KA4 (MSK2)) [%]	inhibition at 10 µM (LCK) [%]	inhibition at 10 µM (CLK3) [%]	also measured
Cc1ncc(-c2nc(Nc3ccc(C(=O)NCCN4CCCCC4)cc3)ncc2F)n1C(C)C [Compound 3]	97	67	105	39	1.51	17	33	57	8	88	99	92	96	91	89	94	71	–
Cc1cc(Nc2nc(N)nn2C(=O)NC(C)C)ccc1Cl [Compound 5]	21	-0.717	22	-0.422	-5.55	7	9	0.455	5.45	25	57	66	56	35	1.89	29	12	–
XMD8-92 [Compound 2, reference compound]	–	–	–	–	–	–	–	–	–	–	–	–	–	–	–	–	–	TAOK2 (TAO1) % Inhibition (TAOK2 (TAO1); 10 µM compound, ATP Km app): 39%; IGF1R % Inhibition (IGF1R; 10 µM compound, ATP Km app): -1.87%; FER % Inhibition (FER; 10 µM compound, ATP Km app): 79%; GRK5 % Inhibition (GRK5; 10 µM compound, ATP Km app): 6%; EEF2K % Inhibition (EEF2K; 10 µM compound, ATP Km app): -6%; ERBB4 (HER4) % Inhibition (ERBB4 (HER4); 10 µM compound, ATP Km app): 16%; IKBKE (IKK epsilon) % Inhibition (IKBKE (IKK epsilon); 10 µM compound, ATP Km app): 4.66%; PLK1 % Inhibition (PLK1; 10 µM compound, ATP Km app): 10%; CDC42 BPB (MRCKB) % Inhibition (CDC42 BPB (MRCKB); 10 µM compound, ATP Km app): -11%; LYN A % Inhibition (LYN A; 10 µM compound, ATP Km app): 66%; ROS1 % Inhibition (ROS1; 10 µM compound, ATP Km app): 69%; JAK2 % Inhibition (JAK2; 10 µM compound, ATP Km app): 95%; CDK1/cyclin B % Inhibition (CDK1/cyclin B; 10 µM compound, ATP Km app): 8.43%; LYN B % Inhibition (LYN B; 10 µM compound, ATP Km app): 39%; RPS6KA4 (MSK2) % Inhibition (RPS6KA4 (MSK2); 10 µM compound, ATP Km app): 12%; LCK % Inhibition (LCK; 10 µM compound, ATP Km app): 15%; CLK3 % Inhibition (CLK3; 10 µM compound, ATP Km app): 5.55%
